This note sets out measurements from paper PMC8444262, “α-Mangostin Induces Apoptosis and Inhibits Metastasis of Breast Cancer Cells via Regulating RXRα-AKT Signaling Pathway” (Frontiers in Pharmacology, 2021).

This test addresses T1, RXRα (Homo sapiens, UniProt P19793).
T1 construct: gene RXRA; RXRα-LBD
T1 sequence (P19793 198-462): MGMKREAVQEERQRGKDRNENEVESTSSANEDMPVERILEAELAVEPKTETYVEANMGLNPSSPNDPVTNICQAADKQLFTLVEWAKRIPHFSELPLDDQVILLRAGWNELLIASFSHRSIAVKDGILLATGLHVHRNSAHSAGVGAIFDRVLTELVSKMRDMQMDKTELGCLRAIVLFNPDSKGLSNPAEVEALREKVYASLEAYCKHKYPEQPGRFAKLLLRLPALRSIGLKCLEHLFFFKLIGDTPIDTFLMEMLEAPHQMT
Put plainly: SPR (Biacore S200, immobilized RXRα-LBD); supported by antagonism of 9-cis-RA in GAL4-RXRα-LBD reporter assay. The test is classed as binding.

Regarding `COc1c(O)cc2oc3cc(O)c(CC=C(C)C)c(O)c3c(=O)c2c1CC=C(C)C` [compound 3, α-Mangostin], the affinity, expressed as Kd, was 39 µM.
